As usually defined, the IC50 is the point on the concentration scale where inhibition reaches its midpoint.

Structures are written as SMILES.

In the assay the test system is whole blood platelet aggregation. The assay can be described thus: Platelet aggregation assay, whole blood (ADP-induced, impedance mode). Conditions: Homo sapiens, read-out: PLATELET DATA IC50 Whole Blood, inhibition of aggregation by maximally effective ADP, whole blood diluted 1:1 with saline. It counts as cell-based, human (healthy volunteers). On the procedure: Blood was collected from healthy volunteers into syringes containing ⅙final blood volume of anti-coagulant ACD (65 mM citric acid, 85 mM sodium citrate, 110 mM dextrose) for washed platelet (WP) preparation or into a syringe containing a final concentration of 10 units/mL heparin or 300 μM PPACK for whole blood (WB) assays. The blood collected for whole blood assays was maintained at room temperature and immediately tested as described below. The blood collected for WP) was centrifuged at 180 g for 15 minutes and the supernatant (platelet rich plasma) was removed. […] Platelet aggregation was measured using the optical mode of a ChronoLog aggregometer (Havertown, Pa.). […] A maximally effective concentration of ADP (typically a concentration that produces between 90 and 100 percent of the maximal response) was added to the sample and aggregation was monitored for 8 minutes. […]
The potency of agonists and inhibitors of platelet aggregation was calculated from both, the rate of aggregation and the maximal extent of aggregation obtained for each determination by fitting the data to a four-parameter logistic equation using the GraphPad software package (GraphPad Corp. San Diego, Calif.).

Regarding `CCNC(=O)Nc1ncnc2c1ncn2[C@@H]1O[C@H](COP(=O)(O)OC)C2O[C@H](/C=C/c3ccccc3)O[C@@H]21` (stereo partly drawn) [Compound 217, 2′,3′-(trans)-O-methylenestyryl-5′-(methylphosphate)-N^6-ethylaminocarbonyl-adenosine], the half-maximal inhibitory concentration (IC50) came to 2.5 µM.

(Values after US7435724B2, “Degradation-resistant mononucleoside phosphate compounds” (Inspire Pharmaceutical, Inc., priority 2002, dated 2008).)
